Biological target: not listed separately
Experiment: Inhibition of tau 4R1N phosphorylation (unknown origin) at S396 residue transfected in human U2OS cells coexpressing GFP-tagged beta catenin incubated overnight by high content imaging assay
Settings: not given

Compound | IC50 [nM]
O=C(Nc1cnccc1N1CCC(F)(F)CC1)c1ccnn2cc(-c3ccccc3)nc12 | 30
CC1CN(c2ccncc2NC(=O)c2ccnn3cc(C4CC4)nc23)CCO1 (configuration not stated) | 60
O=C(Nc1cnccc1N1CCOCC1)c1ccnn2cc(-c3ccccc3)nc12 | 36
O=C(Nc1cnccc1N1CCC(F)(F)CC1)c1ccnn2cc(C3CC3)nc12 | 120
O=C(Nc1cnccc1N1CCC(F)(F)CC1)c1ccnn2c(NCC3CC3)cnc12 | 41
O=C(Nc1cnccc1-c1ccccc1)c1ccnn2cc(-c3ccccc3)nc12 | 910
CC(C)Oc1ccncc1NC(=O)c1ccnn2cc(-c3ccccc3)nc12 | 83

Tested on: not listed separately
Experiment: Metabolic stability in human liver microsomes assessed as parent compound remaining at 0.5 uM incubated for 10 mins by LC-MS/MS analysis
Type: ADME, Microsome
Settings: read-out: Stability

Compound | remaining at 10 min, 0.5 µM [%]
O=C(Nc1cnccc1N1CCC(F)(F)CC1)c1ccnn2cc(-c3ccccc3)nc12 | 40
CC1CN(c2ccncc2NC(=O)c2ccnn3cc(C4CC4)nc23)CCO1 (configuration not stated) | 3
O=C(Nc1cnccc1N1CCOCC1)c1ccnn2cc(-c3ccccc3)nc12 | 31
O=C(Nc1cnccc1-c1ccc(F)cc1)c1ccnn2cc(-c3ccccc3)nc12 | 91
O=C(Nc1cnccc1-c1ccccc1)c1ccnn2cc(-c3ccccc3)nc12 | 79

Tested on: not listed separately
Experiment: Permeability across apical to basolateral side in human Caco-2 cells at 3 uM incubated for 2 hrs by LC-MS/MS analysis
Type: ADME, cell-based
Settings: read-out: permeability

Compound | Papp A→B at 2 h, 3 µM [×10⁻⁶ cm/s]
O=C(Nc1cnccc1N1CCC(F)(F)CC1)c1ccnn2cc(-c3ccccc3)nc12 | 7
CC1CN(c2ccncc2NC(=O)c2ccnn3cc(C4CC4)nc23)CCO1 (configuration not stated) | 22.3
O=C(Nc1cnccc1N1CCOCC1)c1ccnn2cc(-c3ccccc3)nc12 | 32.2

Tested on: not listed separately
Experiment: Metabolic stability in mouse liver microsomes assessed as parent compound remaining at 0.5 uM incubated for 10 mins by LC-MS/MS analysis
Type: ADME, Microsome
Settings: read-out: Stability

Compound | remaining at 10 min, 0.5 µM [%]
O=C(Nc1cnccc1N1CCC(F)(F)CC1)c1ccnn2cc(-c3ccccc3)nc12 | 36
CC1CN(c2ccncc2NC(=O)c2ccnn3cc(C4CC4)nc23)CCO1 (configuration not stated) | 4
O=C(Nc1cnccc1N1CCOCC1)c1ccnn2cc(-c3ccccc3)nc12 | 9
O=C(Nc1cnccc1-c1ccc(F)cc1)c1ccnn2cc(-c3ccccc3)nc12 | 92
O=C(Nc1cnccc1-c1ccccc1)c1ccnn2cc(-c3ccccc3)nc12 | 83

Tested on: not listed separately
Experiment: Oral bioavailability in 8 hr fasted C57BL6 mouse at 10 mg/kg
Type: ADME, organism-based
Settings: in vivo

Compound | bioavailability [%]
CC1CN(c2ccncc2NC(=O)c2ccnn3cc(C4CC4)nc23)CCO1 (configuration not stated) | 37
O=C(Nc1cnccc1N1CCOCC1)c1ccnn2cc(-c3ccccc3)nc12 | 100

Tested on: not listed separately
Experiment: Plasma protein binding in mouse assessed as unbound fraction at 10 uM measured for 5 hrs by equilibrium dialysis based LC-MS/MS analysis
Type: ADME, cell-free
Settings: not given

Compound | fraction unbound at 5 h, 10 µM
O=C(Nc1cnccc1N1CCC(F)(F)CC1)c1ccnn2cc(-c3ccccc3)nc12 | 0.002
CC1CN(c2ccncc2NC(=O)c2ccnn3cc(C4CC4)nc23)CCO1 (configuration not stated) | 0.031
O=C(Nc1cnccc1N1CCOCC1)c1ccnn2cc(-c3ccccc3)nc12 | 0.01
O=C(Nc1cnccc1-c1ccc(F)cc1)c1ccnn2cc(-c3ccccc3)nc12 | 0.002
O=C(Nc1cnccc1-c1ccccc1)c1ccnn2cc(-c3ccccc3)nc12 | 0.003

Tested on: not listed separately
Experiment: Permeability across basolateral to apical side in human Caco-2 cells at 3 uM incubated for 2 hrs by LC-MS/MS analysis
Type: ADME, cell-based
Settings: read-out: permeability

Compound | Papp B→A at 2 h, 3 µM [×10⁻⁶ cm/s]
O=C(Nc1cnccc1N1CCC(F)(F)CC1)c1ccnn2cc(-c3ccccc3)nc12 | 3
CC1CN(c2ccncc2NC(=O)c2ccnn3cc(C4CC4)nc23)CCO1 (configuration not stated) | 13.3
O=C(Nc1cnccc1N1CCOCC1)c1ccnn2cc(-c3ccccc3)nc12 | 9.9

Tested on: not listed separately
Experiment: Half life in 8 hr fasted C57BL6 mouse at 2 mg/kg, iv
Type: ADME, organism-based
Settings: in vivo

Compound | half-life [h]
CC1CN(c2ccncc2NC(=O)c2ccnn3cc(C4CC4)nc23)CCO1 (configuration not stated) | 1.1
O=C(Nc1cnccc1N1CCOCC1)c1ccnn2cc(-c3ccccc3)nc12 | 3.1

Biological target: Glycogen synthase kinase-3 beta (Homo sapiens, UniProt P49841)
Experiment: Inhibition of GSK3-beta (unknown origin)
Settings: not given

Glycogen synthase kinase-3 beta, sequence (P49841 whole entry): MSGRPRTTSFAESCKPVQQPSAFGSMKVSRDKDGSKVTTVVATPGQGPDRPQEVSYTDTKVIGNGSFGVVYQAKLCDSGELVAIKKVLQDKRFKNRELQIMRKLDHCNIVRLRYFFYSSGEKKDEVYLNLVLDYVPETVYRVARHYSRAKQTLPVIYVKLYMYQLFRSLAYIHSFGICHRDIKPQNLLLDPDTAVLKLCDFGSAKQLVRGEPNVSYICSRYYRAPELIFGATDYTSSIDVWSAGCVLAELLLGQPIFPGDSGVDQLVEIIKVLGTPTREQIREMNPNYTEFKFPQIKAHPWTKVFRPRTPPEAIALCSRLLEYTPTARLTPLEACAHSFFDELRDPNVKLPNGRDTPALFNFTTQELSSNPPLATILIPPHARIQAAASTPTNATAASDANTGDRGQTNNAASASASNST

Compound | IC50 [nM]
CC(C)OCCCC(=O)c1n[nH]cc1NC(=O)c1ccccc1 | 2

Tested on: not listed separately
Experiment: Permeability of compound at pH 7.4 incubated for 4 hrs by PAMPA assay
Type: ADME
Settings: read-out: permeability

Compound | Papp at 4 h [×10⁻⁶ cm/s]
O=C(Nc1cnccc1N1CCC(F)(F)CC1)c1ccnn2cc(-c3ccccc3)nc12 | 64.2
CC1CN(c2ccncc2NC(=O)c2ccnn3cc(C4CC4)nc23)CCO1 (configuration not stated) | 107
O=C(Nc1cnccc1N1CCOCC1)c1ccnn2cc(-c3ccccc3)nc12 | 29.8
O=C(Nc1cnccc1-c1ccccc1)c1ccnn2cc(-c3ccccc3)nc12 | 28.2

Tested on: not listed separately
Experiment: Permeability of compound at pH 5.5 incubated for 4 hrs by PAMPA assay
Type: ADME
Settings: read-out: permeability

Compound | Papp at 4 h [×10⁻⁶ cm/s]
O=C(Nc1cnccc1N1CCC(F)(F)CC1)c1ccnn2cc(-c3ccccc3)nc12 | 58.1
CC1CN(c2ccncc2NC(=O)c2ccnn3cc(C4CC4)nc23)CCO1 (configuration not stated) | 86.9
O=C(Nc1cnccc1N1CCOCC1)c1ccnn2cc(-c3ccccc3)nc12 | 7.8
O=C(Nc1cnccc1-c1ccc(F)cc1)c1ccnn2cc(-c3ccccc3)nc12 | 96
O=C(Nc1cnccc1-c1ccccc1)c1ccnn2cc(-c3ccccc3)nc12 | 20.2

Tested on: not listed separately
Experiment: Clearance in 8 hr fasted C57BL6 mouse at 2 mg/kg, iv
Type: ADME, organism-based
Settings: in vivo

Compound | clearance [mL/min/kg]
CC1CN(c2ccncc2NC(=O)c2ccnn3cc(C4CC4)nc23)CCO1 (configuration not stated) | 49.5
O=C(Nc1cnccc1N1CCOCC1)c1ccnn2cc(-c3ccccc3)nc12 | 10.6

Biological target: Glycogen synthase kinase-3 alpha (Homo sapiens, UniProt P49840)
Experiment: Inhibition of full length GST-tagged human recombinant GSK3-alpha using FL-KRREILSRRP[ps]ERYR-NH2 as substrate incubated for 20 hrs
Settings: not given

Glycogen synthase kinase-3 alpha, sequence (P49840 whole entry): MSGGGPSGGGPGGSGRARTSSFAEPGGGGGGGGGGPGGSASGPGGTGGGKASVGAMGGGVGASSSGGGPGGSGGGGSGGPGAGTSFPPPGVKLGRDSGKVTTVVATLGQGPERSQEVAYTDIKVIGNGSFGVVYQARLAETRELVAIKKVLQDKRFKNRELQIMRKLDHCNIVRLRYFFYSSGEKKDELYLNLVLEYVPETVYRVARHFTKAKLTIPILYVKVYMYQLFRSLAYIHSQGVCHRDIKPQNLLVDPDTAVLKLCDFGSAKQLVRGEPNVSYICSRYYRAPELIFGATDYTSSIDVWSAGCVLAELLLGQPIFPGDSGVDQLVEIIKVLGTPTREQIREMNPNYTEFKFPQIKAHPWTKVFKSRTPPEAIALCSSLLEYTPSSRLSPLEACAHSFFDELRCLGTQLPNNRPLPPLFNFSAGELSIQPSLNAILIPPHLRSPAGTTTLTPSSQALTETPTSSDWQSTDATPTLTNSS

Compound | IC50 [nM]
O=C(Nc1cccnc1)c1ccnn2c(NCC3CC3)cnc12 | 510
C[C@H]1CN(c2ccncc2NC(=O)c2ccnn3cc(-c4ccccc4)nc23)CCO1 | 0.1
O=C(Nc1cccnc1)c1ccnn2cc(-c3ccccc3)nc12 | 6.7
O=C(Nc1cnccc1N1CCC(F)(F)CC1)c1ccnn2cc(-c3ccccc3)nc12 | 0.22
O=C(Nc1cnccc1-c1ccccc1)c1ccnn2c(NCC3CC3)cnc12 | 2
COc1ccccc1-c1cn2nccc(C(=O)Nc3cnccc3N3CCOC(C)C3)c2n1 (configuration not stated) | 0.38
O=C(Nc1cnccc1-c1ccc(F)cc1)c1ccnn2cc(C3CC3)nc12 | 0.44
O=C(Nc1cnccc1N1CCC(F)(F)CC1)c1ccnn2ccnc12 | 2.4
O=C(Nc1cnccc1N1CCOCC1)c1ccnn2cc(-c3ccccc3)nc12 | 0.21
O=C(Nc1cnccc1N1CCC(F)(F)CC1)c1ccnn2cc(C3CC3)nc12 | 0.18
O=C(Nc1cnccc1-c1ccc(F)cc1)c1ccnn2cc(-c3ccccc3)nc12 | 1.1
O=C(Nc1cnccc1N1CCC(F)(F)CC1)c1ccnn2c(NCC3CC3)cnc12 | 1.4
CC(C)Oc1ccncc1NC(=O)c1ccnn2cc(-c3ccccc3)nc12 | 0.41

Biological target: P-glycoprotein (ABCB1) (Homo sapiens, UniProt P08183)
Experiment: Substrate activity at P-glycoprotein in human Caco-2 cells assessed as efflux ratio of permeability across basolateral to apical side over apical to basolateral side at 3 uM incubated for 2 hrs by LC-MS/MS analysis
Type: ADME, cell-based
Settings: not given

P-glycoprotein (ABCB1), sequence (P08183 whole entry): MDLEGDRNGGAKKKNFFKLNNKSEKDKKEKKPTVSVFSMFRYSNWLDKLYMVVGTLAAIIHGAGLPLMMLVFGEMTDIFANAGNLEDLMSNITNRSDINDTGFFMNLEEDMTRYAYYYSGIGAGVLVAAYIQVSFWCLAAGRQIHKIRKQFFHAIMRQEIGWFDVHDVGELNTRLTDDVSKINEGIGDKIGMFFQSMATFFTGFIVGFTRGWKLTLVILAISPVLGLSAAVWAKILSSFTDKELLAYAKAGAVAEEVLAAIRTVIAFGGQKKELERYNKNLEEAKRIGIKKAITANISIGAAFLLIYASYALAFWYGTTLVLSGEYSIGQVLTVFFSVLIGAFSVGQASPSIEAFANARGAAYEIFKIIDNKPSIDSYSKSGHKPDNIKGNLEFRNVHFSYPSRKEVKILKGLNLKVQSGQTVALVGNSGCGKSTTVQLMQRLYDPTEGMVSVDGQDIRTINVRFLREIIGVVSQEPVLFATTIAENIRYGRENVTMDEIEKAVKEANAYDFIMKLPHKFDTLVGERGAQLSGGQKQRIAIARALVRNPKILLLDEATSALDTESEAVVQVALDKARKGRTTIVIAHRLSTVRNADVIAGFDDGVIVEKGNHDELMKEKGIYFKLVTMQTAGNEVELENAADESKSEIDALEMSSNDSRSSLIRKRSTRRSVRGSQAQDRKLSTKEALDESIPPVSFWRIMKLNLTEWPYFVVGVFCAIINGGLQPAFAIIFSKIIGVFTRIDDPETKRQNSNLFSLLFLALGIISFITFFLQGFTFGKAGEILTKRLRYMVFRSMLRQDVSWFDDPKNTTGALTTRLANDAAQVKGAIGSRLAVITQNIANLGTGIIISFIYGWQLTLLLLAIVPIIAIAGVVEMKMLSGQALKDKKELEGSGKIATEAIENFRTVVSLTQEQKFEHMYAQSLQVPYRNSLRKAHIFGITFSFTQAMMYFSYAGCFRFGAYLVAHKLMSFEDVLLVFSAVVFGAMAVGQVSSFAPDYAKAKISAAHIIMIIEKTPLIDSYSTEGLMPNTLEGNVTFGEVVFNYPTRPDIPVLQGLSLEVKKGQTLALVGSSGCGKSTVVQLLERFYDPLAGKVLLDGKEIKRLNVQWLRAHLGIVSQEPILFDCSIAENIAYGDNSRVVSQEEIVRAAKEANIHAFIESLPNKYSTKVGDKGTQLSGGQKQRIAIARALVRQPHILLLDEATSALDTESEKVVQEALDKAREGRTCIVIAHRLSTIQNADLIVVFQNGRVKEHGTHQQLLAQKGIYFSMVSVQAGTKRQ

Compound | efflux ratio at 2 h, 3 µM
O=C(Nc1cnccc1N1CCC(F)(F)CC1)c1ccnn2cc(-c3ccccc3)nc12 | < 1
CC1CN(c2ccncc2NC(=O)c2ccnn3cc(C4CC4)nc23)CCO1 (configuration not stated) | < 1
O=C(Nc1cnccc1N1CCOCC1)c1ccnn2cc(-c3ccccc3)nc12 | < 1

Tested on: not listed separately
Experiment: MRT in 8 hr fasted C57BL6 mouse at 2 mg/kg, iv
Type: ADME, organism-based
Settings: in vivo

Compound | MRT [h]
CC1CN(c2ccncc2NC(=O)c2ccnn3cc(C4CC4)nc23)CCO1 (configuration not stated) | 0.6
O=C(Nc1cnccc1N1CCOCC1)c1ccnn2cc(-c3ccccc3)nc12 | 2.4

Tested on: not listed separately
Experiment: Plasma protein binding in human assessed as unbound fraction at 10 uM measured for 5 hrs by equilibrium dialysis based LC-MS/MS analysis
Type: ADME, cell-free
Settings: not given

Compound | fraction unbound at 5 h, 10 µM
O=C(Nc1cnccc1N1CCC(F)(F)CC1)c1ccnn2cc(-c3ccccc3)nc12 | 0.005
CC1CN(c2ccncc2NC(=O)c2ccnn3cc(C4CC4)nc23)CCO1 (configuration not stated) | 0.015
O=C(Nc1cnccc1N1CCOCC1)c1ccnn2cc(-c3ccccc3)nc12 | 0.012
O=C(Nc1cnccc1-c1ccc(F)cc1)c1ccnn2cc(-c3ccccc3)nc12 | 0.003
O=C(Nc1cnccc1-c1ccccc1)c1ccnn2cc(-c3ccccc3)nc12 | < 0.001

Tested on: not listed separately
Experiment: Cmax in 8 hr fasted C57BL6 mouse at 10 mg/kg, po
Type: ADME, organism-based
Design: dose 10 mg/kg, route po
Settings: in vivo

Compound | Cmax [µM]
CC1CN(c2ccncc2NC(=O)c2ccnn3cc(C4CC4)nc23)CCO1 (configuration not stated) | 1.3
O=C(Nc1cnccc1N1CCOCC1)c1ccnn2cc(-c3ccccc3)nc12 | 10.7

Tested on: not listed separately
Experiment: Inhibition of N-terminal 6-His tagged human recombinant GSK3-beta H355L mutant using FL-KRREILSRRP[ps]ERYR-NH2 as substrate incubated for 20 hrs
Settings: not given

Compound | IC50 [nM]
O=C(Nc1cccnc1)c1ccnn2c(NCC3CC3)cnc12 | 220
C[C@H]1CN(c2ccncc2NC(=O)c2ccnn3cc(-c4ccccc4)nc23)CCO1 | 0.13
O=C(Nc1cnccc1N1CCC(F)(F)CC1)c1ccnn2cc(-c3ccccc3)nc12 | 0.37
O=C(Nc1cnccc1-c1ccccc1)c1ccnn2c(NCC3CC3)cnc12 | 3.5
COc1ccccc1-c1cn2nccc(C(=O)Nc3cnccc3N3CCOC(C)C3)c2n1 (configuration not stated) | 0.57
CC1CN(c2ccncc2NC(=O)c2ccnn3cc(C4CC4)nc23)CCO1 (configuration not stated) | 2.6
O=C(Nc1cnccc1-c1ccc(F)cc1)c1ccnn2cc(C3CC3)nc12 | 1.9
O=C(Nc1cnccc1N1CCC(F)(F)CC1)c1ccnn2ccnc12 | 4.6
O=C(Nc1cnccc1N1CCOCC1)c1ccnn2cc(-c3ccccc3)nc12 | 0.42
O=C(Nc1cnccc1N1CCC(F)(F)CC1)c1ccnn2cc(C3CC3)nc12 | 0.43
O=C(Nc1cnccc1-c1ccc(F)cc1)c1ccnn2cc(-c3ccccc3)nc12 | 1.6
O=C(Nc1cnccc1N1CCC(F)(F)CC1)c1ccnn2c(NCC3CC3)cnc12 | 0.87
O=C(Nc1cnccc1-c1ccccc1)c1ccnn2cc(-c3ccccc3)nc12 | 3.6
CC(C)Oc1ccncc1NC(=O)c1ccnn2cc(-c3ccccc3)nc12 | 0.7

Tested on: not listed separately
Experiment: AUC tot in 8 hr fasted C57BL6 mouse at 10 mg/kg, po
Type: ADME, organism-based
Design: dose 10 mg/kg, route po
Settings: in vivo

Compound | AUC [µM·h]
CC1CN(c2ccncc2NC(=O)c2ccnn3cc(C4CC4)nc23)CCO1 (configuration not stated) | 3.3
O=C(Nc1cnccc1N1CCOCC1)c1ccnn2cc(-c3ccccc3)nc12 | 47

Tested on: not listed separately
Experiment: Volume of distribution at steady state in 8 hr fasted C57BL6 mouse at 2 mg/kg, iv
Type: ADME, organism-based
Settings: in vivo, read-out: Vdss

Compound | Vd [L/kg]
CC1CN(c2ccncc2NC(=O)c2ccnn3cc(C4CC4)nc23)CCO1 (configuration not stated) | 1.9
O=C(Nc1cnccc1N1CCOCC1)c1ccnn2cc(-c3ccccc3)nc12 | 1.5

Source: ChEMBL document CHEMBL5247659, “Design, Structure-Activity Relationships, and In Vivo Evaluation of Potent and Brain-Penetrant Imidazo[1,2-b]pyridazines as Glycogen Synthase Kinase-3β (GSK-3β) Inhibitors” (J Med Chem, 2023)
